Data from ChEMBL document CHEMBL1143039, “Further modification on phenyl acetic acid based quinolines as liver X receptor modulators” (Bioorg Med Chem, 2007).

Columns and labels:
Mus musculus [1] = experiment: Increase in plasma triglyceride level in C57BL/6 ApoE knockout mouse at 10 mg/kg, po for 12 weeks; format: functional
Mus musculus [2] = experiment: Reduction of aortic arch lesion in C57BL/6 ApoE knockout mouse at 10 mg/kg, po for 12 weeks; format: functional, Pharyngeal arch artery; parameters: scale not given: the % may be the effect or the level left
Mus musculus [3] = experiment: Reduction in aortic arch lesion area in C57BL/6 ApoE knockout mouse at 10 mg/kg, po for 12 weeks; format: functional, Pharyngeal arch artery
[4] = Clearance in C57BL/6 mouse at 1 mg/kg, iv; format: ADME, organism-based; parameters: dose 1 mg/kg, route intravenous; conditions: in vivo
[5] = molecular target: T1, Oxysterols receptor LXR-beta (Homo sapiens, UniProt P55055); experiment: Agonist activity at human recombinant LXRbeta expressed in Huh7 cells by GAL4 transactivation assay; format: functional, cell-based, Huh-7
T1 sequence (P55055 whole entry): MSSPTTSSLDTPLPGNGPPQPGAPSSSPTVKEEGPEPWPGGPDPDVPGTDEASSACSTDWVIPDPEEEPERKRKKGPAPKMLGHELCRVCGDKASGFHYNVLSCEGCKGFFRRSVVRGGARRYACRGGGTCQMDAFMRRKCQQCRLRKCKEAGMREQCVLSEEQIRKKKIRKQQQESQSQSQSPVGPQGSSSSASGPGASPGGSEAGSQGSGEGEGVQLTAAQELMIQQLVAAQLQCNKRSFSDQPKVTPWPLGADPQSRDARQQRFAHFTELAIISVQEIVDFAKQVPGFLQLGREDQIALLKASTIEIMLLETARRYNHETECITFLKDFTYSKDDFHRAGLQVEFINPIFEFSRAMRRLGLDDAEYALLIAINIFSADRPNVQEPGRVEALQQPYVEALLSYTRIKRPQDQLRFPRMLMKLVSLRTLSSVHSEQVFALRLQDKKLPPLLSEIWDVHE

[6] = Half life in C57BL/6 mouse at 10 mg/kg, po; format: ADME, organism-based; parameters: dose 10 mg/kg, route oral; conditions: in vivo
Huh-7 [7] = experiment: Increase in SREBP1c gene expression in Huh7 cells; format: functional, cell-based; conditions: Homo sapiens
[8] = Cmax in C57BL/6 mouse at 10 mg/kg, po; format: ADME, organism-based; parameters: dose 10 mg/kg, route oral; conditions: in vivo
[9] = Stability in mouse liver microsomes; format: ADME, Microsome
[10] = Volume of distribution in C57BL/6 mouse at 1 mg/kg, iv; format: ADME, organism-based; parameters: dose 1 mg/kg, route intravenous; conditions: in vivo, read-out: Vss
[11] = molecular target: T2, Peroxisome proliferator-activated receptor gamma (Homo sapiens) (UniProt P37231); experiment: Agonist activity at human recombinant PPARgamma by GAL4 transactivation assay relative to rosiglitazone; format: functional
T2 sequence (whole entry): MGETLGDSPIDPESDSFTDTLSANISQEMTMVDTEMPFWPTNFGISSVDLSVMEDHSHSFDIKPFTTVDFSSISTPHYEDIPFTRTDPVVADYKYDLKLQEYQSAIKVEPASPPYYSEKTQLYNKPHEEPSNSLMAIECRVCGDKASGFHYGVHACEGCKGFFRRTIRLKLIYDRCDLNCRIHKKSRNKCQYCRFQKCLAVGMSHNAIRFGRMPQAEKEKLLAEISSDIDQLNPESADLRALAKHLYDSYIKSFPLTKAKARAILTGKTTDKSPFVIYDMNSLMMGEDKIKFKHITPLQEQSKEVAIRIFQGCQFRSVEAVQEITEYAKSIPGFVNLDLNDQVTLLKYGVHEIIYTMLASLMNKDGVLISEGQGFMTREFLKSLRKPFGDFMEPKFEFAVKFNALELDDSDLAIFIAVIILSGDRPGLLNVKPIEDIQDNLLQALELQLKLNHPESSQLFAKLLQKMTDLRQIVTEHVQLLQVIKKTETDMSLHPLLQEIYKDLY

THP-1 [12] = experiment: Increase in ABCA1 gene expression in THP1 cells; format: functional, cell-based; conditions: Homo sapiens
[13] = Bioavailability in C57BL/6 mouse at 10 mg/kg, po; format: ADME, organism-based; conditions: in vivo
[14] = molecular target: T3, Peroxisome proliferator-activated receptor gamma (Homo sapiens, UniProt P37231); experiment: Agonist activity at human recombinant PPARgamma by GAL4 transactivation assay; format: functional
T3 sequence (P37231 whole entry): T2 sequence (whole entry)

[15] = molecular target: T4, Oxysterols receptor LXR-alpha (Homo sapiens) (UniProt Q13133); experiment: Agonist activity at human recombinant LXRalpha expressed in Huh7 cells by GAL4 transactivation assay relative to TO901317; format: functional, cell-based; conditions: Huh-7
T4 sequence (whole entry): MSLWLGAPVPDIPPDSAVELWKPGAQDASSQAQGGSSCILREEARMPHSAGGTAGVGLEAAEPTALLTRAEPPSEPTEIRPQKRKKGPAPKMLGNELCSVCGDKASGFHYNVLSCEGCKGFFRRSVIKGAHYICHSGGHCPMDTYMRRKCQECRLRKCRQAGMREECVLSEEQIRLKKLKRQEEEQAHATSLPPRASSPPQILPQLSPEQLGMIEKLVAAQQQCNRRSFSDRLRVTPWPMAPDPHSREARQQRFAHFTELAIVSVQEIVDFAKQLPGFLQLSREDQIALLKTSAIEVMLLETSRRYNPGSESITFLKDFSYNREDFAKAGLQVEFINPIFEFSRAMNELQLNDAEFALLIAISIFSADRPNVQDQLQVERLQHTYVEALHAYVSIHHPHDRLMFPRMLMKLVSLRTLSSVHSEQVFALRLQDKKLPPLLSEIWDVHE

[16] = molecular target: T5, Peroxisome proliferator-activated receptor alpha (Homo sapiens) (UniProt Q07869); experiment: Agonist activity at human recombinant PPARalpha by GAL4 transactivation assay relative to WY-14643; format: functional
T5 sequence (whole entry): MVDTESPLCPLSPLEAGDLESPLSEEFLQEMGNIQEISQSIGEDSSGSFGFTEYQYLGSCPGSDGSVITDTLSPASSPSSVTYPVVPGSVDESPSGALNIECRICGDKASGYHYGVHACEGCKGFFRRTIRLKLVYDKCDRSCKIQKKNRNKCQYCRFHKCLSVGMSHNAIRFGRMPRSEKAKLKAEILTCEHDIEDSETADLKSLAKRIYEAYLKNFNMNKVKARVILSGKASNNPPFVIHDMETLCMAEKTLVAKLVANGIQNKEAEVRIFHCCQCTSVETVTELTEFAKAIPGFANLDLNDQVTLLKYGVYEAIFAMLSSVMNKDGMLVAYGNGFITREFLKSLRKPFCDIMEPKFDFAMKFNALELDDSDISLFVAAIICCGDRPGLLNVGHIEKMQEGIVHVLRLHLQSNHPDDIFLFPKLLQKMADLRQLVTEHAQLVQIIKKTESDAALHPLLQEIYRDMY

[17] = molecular target: T6, Peroxisome proliferator-activated receptor delta (Homo sapiens, UniProt Q03181); experiment: Agonist activity at human recombinant PPARdelta by GAL4 transactivation assay; format: functional
T6 sequence (Q03181 whole entry): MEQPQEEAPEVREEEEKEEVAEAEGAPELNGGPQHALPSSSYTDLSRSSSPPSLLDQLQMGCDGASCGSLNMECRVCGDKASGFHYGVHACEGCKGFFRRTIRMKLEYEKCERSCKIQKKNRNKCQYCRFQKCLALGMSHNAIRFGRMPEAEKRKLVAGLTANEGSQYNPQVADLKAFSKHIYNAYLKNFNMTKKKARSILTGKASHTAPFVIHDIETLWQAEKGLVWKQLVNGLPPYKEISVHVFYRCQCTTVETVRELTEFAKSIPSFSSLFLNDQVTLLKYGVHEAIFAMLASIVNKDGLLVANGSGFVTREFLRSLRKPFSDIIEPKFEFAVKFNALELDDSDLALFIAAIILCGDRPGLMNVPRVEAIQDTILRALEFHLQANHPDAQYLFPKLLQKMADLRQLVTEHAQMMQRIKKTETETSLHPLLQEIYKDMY

[18] = molecular target: T7, Oxysterols receptor LXR-alpha (Homo sapiens, UniProt Q13133); experiment: biochemical
T7 sequence (Q13133 whole entry): T4 sequence (whole entry)
Description: Displacement of [3H]T-0901317 from human recombinant LXRalpha expressed in CHO cells

[19] = molecular target: T8, Peroxisome proliferator-activated receptor alpha (Homo sapiens, UniProt Q07869); experiment: Agonist activity at human recombinant PPARalpha by GAL4 transactivation assay; format: functional
T8 sequence (Q07869 whole entry): T5 sequence (whole entry)

Huh-7 [20] = experiment: Increase in SREBP1c gene expression in Huh7 cells relative to TO901317; format: functional, Homo sapiens
[21] = molecular target: T9, Oxysterols receptor LXR-beta (Homo sapiens) (UniProt P55055); experiment: Agonist activity at human recombinant LXRbeta expressed in Huh7 cells by GAL4 transactivation assay relative to TO901317; format: functional, cell-based; conditions: Huh-7
T9 sequence (whole entry): T1 sequence (P55055 whole entry)

THP-1 [22] = experiment: Increase in ABCA1 gene expression in THP1 cells relative to TO901317; format: functional, Homo sapiens
[23] = Tmax in C57BL/6 mouse at 10 mg/kg, po; format: ADME, organism-based; parameters: dose 10 mg/kg, route oral; conditions: in vivo
[24] = AUC (infinity) in C57BL/6 mouse at 10 mg/kg, po; format: ADME, organism-based; parameters: time infinity, dose 10 mg/kg, route oral; conditions: plasma
[25] = Half life in C57BL/6 mouse at 1 mg/kg, iv; format: ADME, organism-based; parameters: dose 1 mg/kg, route intravenous; conditions: in vivo
[26] = molecular target: T1, Oxysterols receptor LXR-beta; experiment: biochemical
Description: Displacement of [3H]T0901317 from human recombinant LXRbeta expressed in CHO cells

Liver microsomes = experiment: Stability in human liver microsomes; format: ADME, Microsome
[27] = molecular target: T1, Oxysterols receptor LXR-beta
Description: Agonist activity at human recombinant LXRbeta expressed in CHO cells

[28] = molecular target: T7, Oxysterols receptor LXR-alpha; experiment: Agonist activity at human recombinant LXRalpha expressed in Huh7 cells by GAL4 transactivation assay; format: functional, cell-based, Huh-7

O=C(O)Cc1cccc(OCCCN(Cc2cccc(C(F)(F)F)c2Cl)CC(c2ccccc2)c2ccccc2)c1
Activity (Mus musculus [1]): 2.95 mg/dL
Activity (Mus musculus [2]): 79%
aortic arch lesion area (Mus musculus [3]): 1.99%

O=C(O)Cc1ccc(CNc2cccc(-c3c(Cc4ccccc4)cnc4c(Cl)cccc34)c2)cc1
clearance [4]: 37 mL/min/kg
EC50 [5]: 54 nM
half-life [6]: 1.2 h
EC50 (Huh-7 [7]): 75 nM
Cmax [8]: 2500 ng/mL
Stability [9]: Stable
Vd [10]: 1.8 L/kg
Activity [11]: 50.6%
EC50 (THP-1 [12]): 81 nM
bioavailability [13]: 57%
EC50 [14]: 506 nM
Activity (Mus musculus [1]): 64.56 mg/dL
Activity [15]: 89%
Activity [16]: 12%
EC50 [17]: 631 nM
IC50 [18]: 5 nM
EC50 [19]: 2050 nM
Activity (Huh-7 [20]): 137%
Activity [21]: 67%
Activity (THP-1 [22]): 162%
Tmax [23]: 0.25 h
AUC(0-inf) [24]: 2580 ng·h/mL
half-life [25]: 1.8 h
Activity (Mus musculus [2]): 53%
IC50 [26]: 1.4 nM
Stability (Liver microsomes): Stable
EC50 [27]: 23 nM
EC50 [28]: 121 nM
aortic arch lesion area (Mus musculus [3]): 4.47%

Cc1cccc2c(-c3cccc(NCc4ccc(CC(=O)O)cc4)c3)c(Cc3ccccc3)cnc12
clearance [4]: 25 mL/min/kg
EC50 [5]: 267 nM
half-life [6]: 1.2 h
EC50 (Huh-7 [7]): 51.4 nM
Cmax [8]: 4190 ng/mL
Stability [9]: Stable
Vd [10]: 1.2 L/kg
Activity [11]: 46.6%
EC50 (THP-1 [12]): 438 nM
bioavailability [13]: 53%
EC50 [14]: 1030 nM
Activity (Mus musculus [1]): 15.2 mg/dL
Activity [15]: 101%
Activity [16]: 7.5%
EC50 [17]: 1970 nM
IC50 [18]: 21 nM
EC50 [19]: 1770 nM
Activity (Huh-7 [20]): 114%
Activity [21]: 75%
Activity (THP-1 [22]): 139%
Tmax [23]: 0.25 h
AUC(0-inf) [24]: 3580 ng·h/mL
half-life [25]: 1.6 h
Activity (Mus musculus [2]): 57%
IC50 [26]: 5 nM
Stability (Liver microsomes): Stable
EC50 [27]: 90 nM
EC50 [28]: 467 nM
aortic arch lesion area (Mus musculus [3]): 4.09%

NC(=O)c1cnc2c(C(F)(F)F)cccc2c1-c1cccc(NCc2ccc(CC(=O)O)cc2)c1
IC50 [18]: > 10000 nM
IC50 [26]: > 10000 nM

O=C(O)/C=C/c1ccc(CNc2cccc(-c3c(C(=O)c4ccccc4)cnc4c(C(F)(F)F)cccc34)c2)cc1
IC50 [18]: > 10000 nM
IC50 [26]: > 10000 nM
